Test results reported in ChEMBL document CHEMBL1201862, “PubChem BioAssay data set” (2004).
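Assay format: 96-well plates, 48-hour exposure. Abbreviation: GI50, concentration required for 50% inhibition of growth.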 Calls of active or inactive are those of the source. Cut-off read from the data, not from the text of the source: active = GI50 up to about 1.1 µM and inactive = higher.

Assays:
Experiment in all cases: NCI-60 cell line screen, 48 h
786-0 = tested on: 786-0
A498 = tested on: A498
A549 = tested on: A549
ACHN = tested on: ACHN
BT-549 = tested on: BT-549
CAKI-1 = tested on: CAKI-1
CCRF-CEM = tested on: CCRF-CEM
COLO 205 = tested on: COLO 205
DLD-1 = tested on: DLD-1
DMS-114 = tested on: DMS-114
DMS-273 = tested on: DMS-273
DU-145 = tested on: DU-145
EKVX = tested on: EKVX
HCC 2998 = tested on: HCC 2998
HCT-116 = tested on: HCT-116
HCT-15 = tested on: HCT-15
HL-60 = tested on: HL-60
HOP-18 = tested on: HOP-18
HOP-62 = tested on: HOP-62
HOP-92 = tested on: HOP-92
HT-29 = tested on: HT-29
Hs-578T = tested on: Hs-578T
IGROV-1 = tested on: IGROV-1
K562 = tested on: K562
KM-20L2 = tested on: KM-20L2
KM12 = tested on: KM12
LOX IMVI = tested on: LOX IMVI
LXFL 529 = tested on: LXFL 529
M14 = tested on: M14
M19-MEL = tested on: M19-MEL
MCF7 = tested on: MCF7
MDA-MB-231 = tested on: MDA-MB-231
MDA-MB-435 = tested on: MDA-MB-435
MDA-N = tested on: MDA-N
MOLT-4 = tested on: MOLT-4
Malme-3M = tested on: Malme-3M
NCI-H226 = tested on: NCI-H226
NCI-H23 = tested on: NCI-H23
NCI-H460 = tested on: NCI-H460
NCI-H522 = tested on: NCI-H522
NCI/ADR-RES = tested on: NCI/ADR-RES
OVCAR-3 = tested on: OVCAR-3
OVCAR-4 = tested on: OVCAR-4
OVCAR-5 = tested on: OVCAR-5
OVCAR-8 = tested on: OVCAR-8
PC-3 = tested on: PC-3
RPMI-8226 = tested on: RPMI-8226
RXF 393 = tested on: RXF 393
RXF 631 = tested on: RXF 631
SF-268 = tested on: SF-268
SF-295 = tested on: SF-295
SF-539 = tested on: SF-539
SK-MEL-28 = tested on: SK-MEL-28
SK-MEL-2 = tested on: SK-MEL-2
SK-MEL-5 = tested on: SK-MEL-5
SK-OV-3 = tested on: SK-OV-3
SN12C = tested on: SN12C
SNB-19 = tested on: SNB-19
SNB-75 = tested on: SNB-75
SNB-78 = tested on: SNB-78
SR = tested on: SR
SW-620 = tested on: SW-620
T47D = tested on: T47D
TK-10 = tested on: TK-10
U-251 = tested on: U-251
UACC-257 = tested on: UACC-257
UACC-62 = tested on: UACC-62
UO-31 = tested on: UO-31
XF498 = tested on: XF498

`COc1cc2c(c(OC)c1OC)-c1ccc(OC)c(=O)cc1C(NC(=O)COc1ccccc1)CC2` (centres undefined) was tested, and the GI50 (786-0) was < 10 nM (active), the GI50 (A498) was < 10 nM (active) and the GI50 (A549) was < 10 nM (active). The GI50 (ACHN) was 10.1 nM (active), the GI50 (BT-549) was < 10 nM (active) and the GI50 (CAKI-1) was < 10 nM (active). The GI50 (CCRF-CEM) was 16.2 nM (active), the GI50 (COLO 205) was < 10 nM (active) and the GI50 (DLD-1) was < 10 nM (active). For the same compound, the GI50 (DMS-114) was < 10 nM (active), the GI50 (DMS-273) was < 10 nM (active) and the GI50 (DU-145) was < 10 nM (active). The GI50 (EKVX) was 731 nM (active), the GI50 (HCC 2998) was < 10 nM (active) and the GI50 (HCT-116) was < 10 nM (active). For the same compound, the GI50 (HCT-15) was 10.4 nM, the GI50 (HL-60) was 37.2 nM (active) and the GI50 (HOP-18) was > 100000 nM (inactive). For the same compound, the GI50 (HOP-62) was < 10 nM (active), the GI50 (HOP-92) was < 10 nM (active) and the GI50 (HT-29) was < 10 nM (active). For the same compound, the GI50 (Hs-578T) was < 10 nM (active), the GI50 (IGROV-1) was < 10 nM (active) and the GI50 (K562) was < 20.8 nM (active). For the same compound, the GI50 (KM-20L2) was < 10 nM (active), the GI50 (KM12) was < 10 nM (active) and the GI50 (LOX IMVI) was < 10 nM (active). For the same compound, the GI50 (LXFL 529) was < 10 nM (active), the GI50 (M14) was < 10 nM (active) and the GI50 (M19-MEL) was < 10 nM (active). The GI50 (MCF7) was < 10 nM (active), the GI50 (MDA-MB-231) was < 10 nM (active) and the GI50 (MDA-MB-435) was < 10 nM (active). The GI50 (MDA-N) was < 10 nM (active), the GI50 (MOLT-4) was < 10 nM (active) and the GI50 (Malme-3M) was < 10 nM (active). For the same compound, the GI50 (NCI-H226) was < 37.2 nM (active), the GI50 (NCI-H23) was < 10 nM (active) and the GI50 (NCI-H460) was < 10 nM (active). For the same compound, the GI50 (NCI-H522) was < 10 nM (active), the GI50 (NCI/ADR-RES) was 54.6 nM (active) and the GI50 (OVCAR-3) was < 10 nM (active). The GI50 (OVCAR-4) was 3110 nM (inactive), the GI50 (OVCAR-5) was 300 nM (active) and the GI50 (OVCAR-8) was < 10 nM (active). The GI50 (PC-3) was < 10 nM (active), the GI50 (RPMI-8226) was < 10 nM (active) and the GI50 (RXF 393) was 18.4 nM (active). The GI50 (RXF 631) was < 10 nM (active), the GI50 (SF-268) was < 10 nM (active) and the GI50 (SF-295) was < 10 nM (active). The GI50 (SF-539) was < 10 nM (active), the GI50 (SK-MEL-28) was 49.8 nM (active) and the GI50 (SK-MEL-2) was < 10 nM (active). For the same compound, the GI50 (SK-MEL-5) was < 10 nM (active), the GI50 (SK-OV-3) was 28.2 nM (active) and the GI50 (SN12C) was < 10 nM (active). For the same compound, the GI50 (SNB-19) was < 10 nM (active), the GI50 (SNB-75) was < 10 nM (active) and the GI50 (SNB-78) was < 10 nM (active). For the same compound, the GI50 (SR) was < 10 nM (active), the GI50 (SW-620) was < 10 nM (active) and the GI50 (T47D) was 39900 nM (inactive). For the same compound, the GI50 (TK-10) was 627 nM (active), the GI50 (U-251) was < 10 nM (active) and the GI50 (UACC-257) was < 29 nM (active). For the same compound, the GI50 (UACC-62) was < 10 nM (active), the GI50 (UO-31) was 40.2 nM (active) and the GI50 (XF498) was < 62.5 nM (active).
